Experimental data: ChEMBL document CHEMBL4390686, “Design, Synthesis, and Pharmacokinetic Evaluation of Phosphate and Amino Acid Ester Prodrugs for Improving the Oral Bioavailability of the HIV-1 Protease Inhibitor Atazanavir” (J Med Chem, 2019)
≈ marks a conversion by molar mass, not a printed value.

Key:
[1] = Cmin in cannulated Sprague-Dawley rat assessed as atazanavir level at 30 mg/kg equiv of atazanavir administered orally measured after 24 hrs by UPLC/MS/MS analysis; type: ADME, organism-based; conditions: in vivo, po, read-out: Cmin
[2] = Elimination half life in rat hepatocytes at 1 uM in presence of esterase inhibitor PMSF; type: ADME, cell-based, Hepatocyte; conditions: with PMSF (esterase inhibitor), read-out: beta t1/2
[3] = Stability in simulated gastric fluid assessed as porcine pepsin-mediated compound hydrolysis at 1 mL measured up to 1 hr at pH 1.2 by HPLC analysis; type: ADME, Sus scrofa; conditions: pig, isolated protein, pH 1.2, 1 h
in vitro = conditions: human, Caco-2
Description: Apparent permeability across basolateral to apical side in human Caco2 cells at 2 uM

[4] = Aqueous solubility of the compound in FeSSIF by RP-HPLC analysis; type: physicochemical
[5] = Elimination half life in rat hepatocytes at 1 uM in absence of esterase inhibitor PMSF/CYP450 inhibitor ABT; type: ADME, cell-based, Hepatocyte; conditions: read-out: beta t1/2
[6] = Drug metabolism in cannulated Sprague-Dawley rat assessed as prodrug to atazanavir ratio at 6 mg/kg equiv of atazanavir administered orally by UPLC/MS/MS analysis; type: ADME, organism-based; conditions: in vivo, po
[7] = Aqueous solubility of the compound in pH 3 buffer by RP-UPLC analysis; type: physicochemical
[8] = Elimination half life in rat hepatocytes at 1 uM in presence of CYP450 inhibitor ABT; type: ADME, cell-based, Hepatocyte; conditions: with ABT (CYP450 inhibitor), read-out: beta t1/2
[9] = system: Human immunodeficiency virus 1
Description: Antiviral activity against HIV1 NL4-3 infected in human MT2 cells assessed as reduction in viral yield measured after 4 days by EnduRen live cell substrate based luciferase reporter gene assay

[10] = Cmax in cannulated Sprague-Dawley rat assessed as atazanavir level at 30 mg/kg equiv of atazanavir administered orally by UPLC/MS/MS analysis; type: ADME, organism-based; set-up: dose 30 mg/kg, route oral; conditions: in vivo, po
[11] = Half life in rat whole blood at 1 uM by UPLC-MS/MS analysis; type: ADME, tissue-based
[12] = Cmin in cannulated Sprague-Dawley rat assessed as atazanavir level at 3 mg/kg equiv of atazanavir administered orally measured after 24 hrs by UPLC/MS/MS analysis; type: ADME, organism-based; conditions: in vivo, po, BLD = below limit of detection
[13] = rat, in vivo, po, 3 mg/kg
Description: AUClast in cannulated Sprague-Dawley rat assessed as atazanavir level at 3 mg/kg equiv of atazanavir administered orally by UPLC/MS/MS analysis

[14] = Prodrug conversion in rat hepatocytes assessed as pseudo first order rate constant for atazanavir formation at 1 uM in presence of esterase inhibitor PMSF; type: ADME, cell-based, Hepatocyte
[15] = biological target: T1, UDP-glucuronosyltransferase 1A1 (Homo sapiens, UniProt P22309); assay: Inhibition of recombinant human UGT1A1 using bilirubin as substrate preincubated for 5 mins followed by substrate addition and measured after 40 mins by LC-MS/MS analysis; type: ADME
T1 sequence (P22309 whole entry): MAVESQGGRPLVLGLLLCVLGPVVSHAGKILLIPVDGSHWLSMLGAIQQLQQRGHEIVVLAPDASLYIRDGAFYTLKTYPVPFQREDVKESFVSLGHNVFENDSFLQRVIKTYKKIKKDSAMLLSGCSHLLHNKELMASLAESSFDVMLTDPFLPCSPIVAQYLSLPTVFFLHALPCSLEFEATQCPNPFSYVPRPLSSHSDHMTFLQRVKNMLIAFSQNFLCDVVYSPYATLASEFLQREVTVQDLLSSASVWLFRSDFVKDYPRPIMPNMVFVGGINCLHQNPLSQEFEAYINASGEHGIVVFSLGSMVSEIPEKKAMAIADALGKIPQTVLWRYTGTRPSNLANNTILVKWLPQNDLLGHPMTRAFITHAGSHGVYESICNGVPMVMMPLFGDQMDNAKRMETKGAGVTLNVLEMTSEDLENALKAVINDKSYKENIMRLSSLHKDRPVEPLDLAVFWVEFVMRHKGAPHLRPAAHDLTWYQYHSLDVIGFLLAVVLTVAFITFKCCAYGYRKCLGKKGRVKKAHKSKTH

[16] = Drug recovery in mesenteric vein plasma of closed loop rat intestinal model at 1 mg/kg administered as cassette dose by LC/MS analysis; type: ADME, organism-based; conditions: in vivo
[17] = biological target: T1, UDP-glucuronosyltransferase 1A1; assay: Inhibition of UGT1A1 in human liver microsomes using beta-estradiol as substrate preincubated for 5 mins followed by substrate addition and measured after 40 mins by LC-MS/MS analysis; type: ADME
[18] = Ratio of test compound to atazanavir aqueous solubility in pH 4 acetate buffer by RP-UPLC analysis; type: physicochemical
Protease = Protease (Human immunodeficiency virus 1, UniProt Q9YQ12)
Sequence of Protease (Q9YQ12 whole entry): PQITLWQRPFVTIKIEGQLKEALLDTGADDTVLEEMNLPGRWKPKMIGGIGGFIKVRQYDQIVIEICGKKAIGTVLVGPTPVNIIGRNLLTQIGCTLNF
Description: Inhibition of HIV1 protease activity

UGT1A1 = biological target: T2, UGT1A1 (Homo sapiens, UniProt P22309); assay: Ratio of test compound IC50 to atazanavir IC50 for recombinant human UGT1A1; type: ADME; conditions: read-out: Ratio IC50
T2 sequence (P22309 whole entry): T1 sequence (P22309 whole entry)

[19] = Prodrug conversion in rat hepatocytes assessed as pseudo first order rate constant for atazanavir formation at 1 uM in absence of esterase inhibitor PMSF/CYP450 inhibitor ABT; type: ADME, cell-based, Hepatocyte
[20] = Prodrug conversion in rat hepatocytes assessed as pseudo first order rate constant for atazanavir formation at 1 uM in presence of CYP450 inhibitor ABT; type: ADME, cell-based, Hepatocyte
[21] = Aqueous solubility of the compound in FaSSIF by RP-HPLC analysis; type: physicochemical
[22] = Ratio of test compound to atazanavir aqueous solubility in pH 5 buffer by RP-UPLC analysis; type: physicochemical
physchem = conditions: 30% CH3CN/acetate buffer, pH 4
Description: Half life in pH 4 30%CH3CN/acetate buffer at 50 mM by RP-UPLC analysis

[23] = biological target: T3, UDP-glucuronosyltransferase 1A1 (Rattus norvegicus, UniProt Q64550); assay: Inhibition of recombinant rat UGT1A1 using beta-estradiol as substrate preincubated for 5 mins followed by substrate addition and measured after 40 mins by LC-MS/MS analysis; type: ADME
T3 sequence (Q64550 whole entry): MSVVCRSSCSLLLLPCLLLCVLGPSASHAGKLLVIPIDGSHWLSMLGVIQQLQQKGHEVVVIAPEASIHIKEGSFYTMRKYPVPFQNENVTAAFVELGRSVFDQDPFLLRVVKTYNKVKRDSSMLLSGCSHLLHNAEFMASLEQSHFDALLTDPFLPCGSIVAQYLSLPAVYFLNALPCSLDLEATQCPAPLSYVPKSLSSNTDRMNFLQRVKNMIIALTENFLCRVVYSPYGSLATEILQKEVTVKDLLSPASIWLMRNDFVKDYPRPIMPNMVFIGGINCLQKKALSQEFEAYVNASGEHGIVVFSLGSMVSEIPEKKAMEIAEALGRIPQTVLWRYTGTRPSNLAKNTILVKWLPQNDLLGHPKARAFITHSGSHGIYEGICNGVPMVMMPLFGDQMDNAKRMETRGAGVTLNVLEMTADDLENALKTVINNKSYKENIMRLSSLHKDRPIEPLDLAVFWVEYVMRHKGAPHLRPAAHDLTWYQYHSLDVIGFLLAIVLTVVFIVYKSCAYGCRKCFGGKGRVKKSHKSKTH

[24] = Total AUC in cannulated Sprague-Dawley rat assessed as atazanavir level at 30 mg/kg equiv of atazanavir administered orally by UPLC/MS/MS analysis relative to atazanavir alone; type: ADME, organism-based; conditions: in vivo, po

COC(=O)N[C@H](C(=O)N[C@@H](Cc1ccccc1)[C@H](CN(Cc1ccc(-c2ccccn2)cc1)NC(=O)[C@@H](NC(=O)OC)C(C)(C)C)OC(=O)[C@@H](N)Cc1ccccc1)C(C)(C)C
concentration [1]: 1 nM | half-life at 1 µM [2]: 1.28 h | Stability [3]: Stable | Papp B→A at 2 µM (in vitro): 13.1 ×10⁻⁶ cm/s | solubility [4]: > 500 µg/mL | half-life at 1 µM [5]: 0.7 h | Ratio [6]: 0.7 | solubility [7]: > 3200 µg/mL | half-life at 1 µM [8]: > 2 h | EC50 [9]: 0.0009 to 1.25 µM | Cmax [10]: 4720 nM | half-life at 1 µM [11]: > 2 h | Cmin [12]: Bld | AUClast [13]: 0.573 µM·h | K [14]: 0.0009 min⁻¹ | IC50 [15]: 2.8 µM | Drug recovery [16]: 2.8% | IC50 [17]: 2.5 µM | Ratio [18]: 4100 | IC50 (Protease): 0.004 to 1.14 µM | selectivity ratio (UGT1A1): 9.3 | K [19]: 0.0164 min⁻¹ | K [20]: 0.0042 min⁻¹ | solubility [21]: 130 µg/mL (≈ 153 µM) | Ratio [22]: 1300 | half-life at 50000 µM (physchem): > 500 h | IC50 [23]: 12.6 µM | fold change (FC) [24]: 65.3
